Key:
[1] = target: T1, legumain (Homo sapiens, UniProt Q99538); assay: Fluorogenic continuous rate assay of legumain activity, substrate Z-Ala-Ala-Asn-AMC (kobs/[I]); format: biochemical; details: for kobs/[l] (second-order rate constant for the inactivation of legumain): substrate Z-Ala-Ala-Asn-AMC, 37° C. or 30° C., sodium citrate buffer, 1 mM dithiothreitol, 1 mM EDTA, approximate second-order inactivation constants
T1 sequence (Q99538 18-323): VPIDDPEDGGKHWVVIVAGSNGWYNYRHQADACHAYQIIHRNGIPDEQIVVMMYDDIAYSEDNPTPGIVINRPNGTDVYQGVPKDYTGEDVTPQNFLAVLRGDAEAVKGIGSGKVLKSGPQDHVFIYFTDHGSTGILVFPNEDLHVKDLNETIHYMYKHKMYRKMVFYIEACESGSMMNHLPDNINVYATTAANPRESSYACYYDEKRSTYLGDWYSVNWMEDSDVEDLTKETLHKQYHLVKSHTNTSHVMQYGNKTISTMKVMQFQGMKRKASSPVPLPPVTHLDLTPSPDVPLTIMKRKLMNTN
Description: The legumain activity was determined in a fluorogenic continuos rate assay using the substrate Z-Ala-Ala-Asn-AMC on a Kontron spectrofluorometer SFM25 (exitation 380; emission 460) equipped with a four cell changer and controlled by an IBM-compatible personal computer. The obtained data were analyzed with the software FLUCOL^(38). The assay were done at 37° C. or 30° C., using a sodium citrate buffer (39.5 mM citric acid/121 mM Na2HPO4) containing 1 mM dithiothreitol and 1 mM EDTA. Additionally, 0.1% (w/v) Chaps or 0.015% (w/v) Brij 35 was added.
The inhibition progress curves were analyzed using non-linear curve fitting software Prism Graph Pad to compute the kobs values. Approximate second-order inactivation constants (kobs/[I]) were calculated for all compounds.

[2] = target: T1, legumain; assay: Determination of Ki-values, legumain, substrate Z-Ala-Ala-Asn-AMC; format: biochemical; details: HEPES pH 7.6, 30° C.; substrate 0.05, 0.1, 0.2 and 0.4 mM
Description: 100 μl inhibitor stock solution were mixed with 100 μl buffer (HEPES pH 7.6) and 50 μl substrate Z-Ala-Ala-Asn-AMC and preincubated at 30° C. Reaction was started by addition of 20 μl enzyme solution. Formation of the product AMC was measured on a Kontron spectrofluorometer SFM25 (exitation 380; emission 460) and slopes were calculated. Legumain activity was measured at final substrate concentrations of 0.05, 0.1, 0.2, and 0.4 mM and further 7 inhibitor concentrations covering the IC50 concentration. Calculations were performed using the GraFit 4.0.13 (Erithacus) Software.

Molecule	kobs/[l] (second-order rate constant for the inactivation of legumain) [1]	also measured
CC(NC(=O)OCc1ccccc1)C(=O)NC(C)C(=O)N[C@H](/C=C/C(=O)O)CC(N)=O (stereo partly drawn) [Compound 8, (S)-(E)-4-[Cbz-L-Ala-L-Ala]amino-6-amino-6-oxo-2-hexenoic acid]	4 M⁻¹ s⁻¹	–
CCOC(=O)/C(C)=C/[C@H](CC(N)=O)NC(=O)C(C)NC(=O)C(C)NC(=O)OCc1ccccc1 (stereo partly drawn) [Compound 10, Ethyl (S)-(E)-4-[Cbz-L-Ala-L-Ala]amino-6-amino-2-methyl-6-oxo-2-hexenoate]	2 M⁻¹ s⁻¹	–
CC(NC(=O)OCc1ccccc1)C(=O)NC(C)C(=O)NN(CC(N)=O)C(=O)CCl [Compound 18, 2-[2-(Cbz-L-Ala-L-Ala)-1-(chloroacetyl)hydrazino]acetamide]	139088 M⁻¹ s⁻¹	second-order rate constant for the inactivation of legumain, fold higher than that of the Michael acceptor inhibitors ([1]; compared with the Michael acceptor inhibitors): approximately 200 fold
C[C@H](NC(=O)OCc1ccccc1)C(=O)N[C@@H](C)C(=O)N[C@@H](CC(N)=O)C(=O)NOC(=O)c1ccccc1 [Compound 20, [Cbz-L-Ala-L-Ala-L-Asn]-O-benzoylhydroxamate]	–	Ki [2]: 3.1 µM
C[C@H](NC(=O)OCc1ccccc1)C(=O)N[C@@H](C)C(=O)NN(CC(N)=O)C(=O)COC(=O)c1ccccc1 [Compound 24, 2-[2-(Cbz-L-Ala-L-Ala)-1-(benzoyloxyacetyl)hydrazino]acetamide]	13 M⁻¹ s⁻¹	inhibition of legumain (in words) [1]: only moderate inhibition
Diethyl [(S)-(E)-3-[Cbz-L-Ala-L-Ala]amino-5-amino-5-oxo-1-petenylphosphate [Compound 13]	<1 M⁻¹ s⁻¹	–

Further lines, with some results ahead:

kobs/[l] (second-order rate constant for the inactivation of legumain) [1]	Molecule	also measured
543 M⁻¹ s⁻¹	COC(=O)/C=C/[C@H](CC(N)=O)NC(=O)[C@H](C)NC(=O)[C@H](C)NC(=O)OCc1ccccc1 [Compound 5, Methyl (S)-(E)-4-[Cbz-L-Ala-L-Ala]amino-6-amino-6-oxo-2-hexenoate]	–
456 M⁻¹ s⁻¹	CCOC(=O)/C=C/[C@H](CC(N)=O)NC(=O)[C@H](C)NC(=O)[C@H](C)NC(=O)OCc1ccccc1 [Compound 6, Ethyl (S)-(E)-4-[Cbz-L-Ala-L-Ala]amino-6-amino-6-oxo-2-hexenoate]	–
776 M⁻¹ s⁻¹	C=CCOC(=O)/C=C/[C@H](CC(N)=O)NC(=O)[C@H](C)NC(=O)[C@H](C)NC(=O)OCc1ccccc1 [Compound 7, Allyl (S)-(E)-4-[Cbz-L-Ala-L-Ala]amino-6-amino-6-oxo-2-hexenoate]	–
2 M⁻¹ s⁻¹	COC(=O)/C(C)=C/[C@H](CC(N)=O)NC(=O)C(C)NC(=O)C(C)NC(=O)OCc1ccccc1 (stereo partly drawn) [Compound 9, Methyl (S)-(E)-4-[Cbz-L-Ala-L-Ala]amino-6-amino-2-methyl-6-oxo-2-hexenoate]	–
<1 M⁻¹ s⁻¹	C/C(=C\[C@H](CC(N)=O)NC(=O)[C@H](C)NC(=O)[C@H](C)NC(=O)OCc1ccccc1)C(=O)O [Compound 11, (S)-(E)-4-[Cbz-L-Ala-L-Ala]amino-6-amino-2-methyl-6-oxo-2-hexenoic acid]	–
84000 M⁻¹ s⁻¹	C[C@H](NC(=O)OCc1ccccc1)C(=O)N[C@@H](C)C(=O)NN(CC(N)=O)C(=O)CBr [Compound 22, 2-[2-(Cbz-L-Ala-L-Ala)-1-(bromoacetyl)hydrazino]acetamide]	inhibition of legumain (in words) [1]: potent inhibitor
30 M⁻¹ s⁻¹	Methyl [(S)-(E)-3-[Cbz-L-Ala-L-Ala]amino-5-amino-5-oxo-1-petene]-sulfonate [Compound 12]	–
